Strand notation (5' to 3'): a small letter for the sugar, then the base; units joined by * are phosphorothioate-linked, units joined directly phosphodiester-linked; [ ] holds rarer units or linkages, { } end groups; capitals alone tell only the bases. m = 2'-O-methyl; r = 2'-OH (RNA)
Tests used:
CD34-expressing LT-HSPCs = assay: Viability of edited LT-HSPCs by Tryphan Blue staining; format: cell-based, human
Protocol: (§1) Edited cells were evaluated for GFP fluorescence on day 2 post-editing using flow cytometry, and viability was determined via staining with Tryphan Blue.
(§2) Edited cells were evaluated for viability as described above, and for incorporation of gene-edits at 2 days post-electroporation. […] The frequency of INDELs induced at the R02 cut site was also evaluated by NGS analysis.

[1] = test system: HBB gene locus in CD34-expressing LT-HSPCs; assay: INDEL frequency and species at R02 cut site with DNA-PK inhibitors, NGS; format: cell-based, human
Protocol: (§3) Editing was performed as described above. However, the cells were electroporated with AAV.307 administered 1 hour prior to electroporation at a dose of 10,000 MOI. The cells were electroporated with compound 296 at a concentration ranging from 0.005 μM to 10 μM, with compound 984 at a concentration ranging from 0.005 μM to […], or with 1 μg i53 mRNA. Negative control cells were electroporated with RNP+AAV only or RNP only.
as §2
The INDELs species identified for cells edited in Experiment 2 were further evaluated to determine frequency of repair by NHEJ or MMEJ repair pathways. An INDEL of 1 nt was considered due to NHEJ repair; a deletion of −9 nt was considered due to MMEJ repair based on the microhomology present on either side of the R02 cut site. Based on percentage of total reads corresponding to these INDEL species, the ratio of gene edits due to NHEJ and MMEJ repair was evaluated.

[2] = molecular target: DNA-PK catalytic subunit (DNA-PKcs) (Homo sapiens, UniProt P78527); conditions: reported, U.S. Pat. No. 9,592,232; cited from earlier work
[3] = test system: HBB gene locus in CD34-expressing LT-HSPCs; assay: HDR efficiency at HBB gene with R02 RNP+AAV.307 and DNA-PK inhibitors, NGS; format: cell-based, human
Protocol: as §3, §2

[4] = test system: HBB gene locus in CD34-expressing LT-HSPCs; assay: HDR insertion of GFP donor at HBB gene locus with DNA-PK inhibitor (percentage of cells expressing GFP); format: cell-based, human; conditions: for level of HDR repair (cells expressing GFP): day 2 post-editing, FIG. 37A
Protocol: The effect of DNA-PK inhibition using Compound 296 was compared to the effect of 53BP1 inhibition using i53 for increased HDR repair of the HBB gene locus with donor DNA encoding GFP.
The efficiency of HDR for repair of the HBB gene with donor encoding GFP was determined by measuring the percentage of cells expressing GFP following electroporation.
as §1

[5] = test system: BFP gene encoded in the AAVS1 locus of HEK293 T cells; assay: BFP to GFP reporter assay of HDR repair (flow cytometry); format: cell-based; conditions: different concentrations or doses; FIG. 1B, 1C
Protocol: An in vitro assay was conducted to determine the ability of various inhibitors and enhancers to improve the efficiency of HDR repair in HEK293 T cells. Specifically, a fluorescent reporter-based screening approach was developed to identify molecules that enhance gene-editing by HDR. A reporter system was generated in HEK293 T cells comprising a genomic AAVS1 locus that encoded either a blue fluorescent protein (BFP) or a green fluorescent protein (GFP) within the AAVS1 locus. A gene encoding BFP can be converted to a gene encoding GFP by substitution of cytosine at position 199 to uridine (e.g., a C to U transition at position 199). By introducing a DSB within the BFP gene using a CRISPR/Cas9 gene-editing system, a homology donor DNA encoding the nucleotide substitution can be used to edit the BFP gene to a GFP gene by HDR repair. Thus, a gene edit that induces a C to U transition at position 199 results in a change in cellular fluorescence. A change in the fluorescence of the cell measured by flow cytometry can be used to quantify efficiency of HDR repair. Additionally, the reverse gene edit can be performed for an AAVS1 locus encoding a GFP gene, wherein a GFP can be converted to BFP by substitution of uridine at position 199 to cytosine.
To create the reporter system, an AAV-based homology donor DNA encoding either BFP or GFP was created. The AAV-BFP or AAV-GFP donor was flanked by homology arms that were 1000 base pairs in length and expression of BFP or GFP was driven by the MND promoter (e.g., a synthetic promoter that contains the U3 region of a modified Moloney murine leukemia virus long term terminal repeat with myeloproliferative sarcoma virus enhancer and deleted negative control region, SEQ ID NO: 58). The viral DNA was packaged into capsids of adeno-associated virus serotype 6 (AAV6) vector. Either the BFP or GFP donor was introduced using the AAV6 vector into the AAVS1 locus in HEK293 T cells by homologous recombination using CRISPR-Cas9 as follows: purified Cas9 protein was complexed with two different single gRNAs (sgRNAs) targeting the AAVS1 locus at SEQ ID NO: 3 (spacer sequence identified by SEQ ID NO: 4; gRNA obtained from Maxcyte) or SEQ ID NO: 5 (spacer sequence identified by SEQ ID NO: 6; gRNA obtained from Thermo Fisher). Cas9 protein used in the Exemplary section provided herein refers to Cas9 polypeptide derived from S pyogenes (SpCas9), unless indicated otherwise.
The Cas9-sgRNA complex was electroporated into the HEK293 T cells using the Lonza Nucleofector program CM-130. Approximately, 2 hours after electroporation, the cells were infected with various viral doses of AAV6 encoding a BFP (SEQ ID NO: 44) or GFP homology donor (SEQ ID NO: 47). One week later, cells were analyzed by flow cytometry to verify integration and expression of BFP or GFP in the AAVS1 locus. HEK293 T cells expressing BFP or GFP were sorted into single cells in 96-well plates. After −2 weeks of growth, DNA extracted from individual cells was analyzed for precise integration of the respective BFP or GFP gene into the AAVS1 locus by long-range PCR. This PCR analysis allowed for determination of whether the BFP/GFP gene was integrated in one or both alleles of the AAVS1 locus.
To introduce a gene edit that converts BFP to GFP, cells were electroporated with ribonucleoprotein (RNP) comprised of Cas9 and sgRNA that targets the BFP gene encoded in the AAVS1 locus. The sgRNA targeted a sequence in the BFP gene identified by SEQ ID NO: 7 (sgRNA spacer sequence identified by SEQ ID NO: 8). The sgRNA were prepared using a standard sgRNA cassette specific to SpCas9, as indicated by SEQ ID NO: 2 (wherein a, c, g, u represent 2′ O-methyl phosphorothioate nucleotides; s represents phosphorothioate nucleotides; and A, C, G, U, N represent canonical RNA nucleotides). The gRNAs used in the Exemplary section provided herein were sgRNAs prepared with the SpCas9 sgRNA cassette unless indicated otherwise. […]

[6] = test system: HBB locus in CD34-expressing LT-HSPCs; assay: HDR insertion of AAV GFP donor at HBB locus (GFP fluorescence); format: cell-based, human; conditions: i53 mRNA 0.5, 1, 2 g (FIG. 6A) or 0.3 g, 1 g (FIG. 6B); CYREN1 or CYREN2 mRNA; any dose of XL413 (data not shown)
Protocol: Frozen CD34-expressing LT-HSPCs derived from plerixafor (i.e., Mozibil®)+GCSF-dual mobilized peripheral blood obtained from healthy human donors were purchased from a commercial vendor. LT-HSPCs were maintained in culture media comprised of the reagents shown in Table 4 and were incubated at 37° C., 5% carbon dioxide, 4% oxygen. […] 2×10^5 cells were edited with 3 g Cas9 and 3 g gRNA. The target gene sequence (including target sequence with PAM), R02 spacer sequence, and R02 sgRNA sequence are identified in Table 3.
The cells were transfected with a dsDNA homology donor encoding GFP under a SFFV promoter (SEQ ID NO: 60) that was delivered by AAV (SEQ ID NO: 56). […] The HDR efficiency was determined by measuring the level of GFP fluorescence in the cells following electroporation. To determine the effect of 53BP1 inhibition on HDR efficiency, the 53BP1 inhibitor i53 was introduced as an mRNA-encoded protein to the cells during electroporation with Cas9/gRNA RNP and AAV DNA that serves as a donor for homology directed repair.
The effect of 53BP1 inhibition on HDR efficiency was compared to other mRNA-encoded proteins that inhibit the NHEJ pathway. These included the proteins CYREN1 and CYREN2 that inhibit Ku70/80, a heterodimer that binds DNA blunt ends to prevent processing of 3′ single-stranded DNA tails necessary for HDR repair. Cells were electroporated with RNP, an AAV-GFP homology donor and mRNA encoding either i53 (mRNA ORF shown in SEQ ID NO: 69), CYREN1, or CYREN2.
The effect of treatment with i53 and Nu7441 was compared for improving efficiency of HDR repair of the HBB locus. Cells were treated with different doses of Nu7441 or with mRNA encoding i53 (ORF shown by SEQ ID NO: 69).

genomic DNA = assay: GUIDE-Seq screen of candidate off-target sites; format: cell-based
From the text: The second approach was to screen candidate off-target sites using GUIDE-Seq (see, e.g., Tsai et al (2015) NAT BIOTECHNOL. 33:187). Based on this approach, 36 sites in the genomic DNA were identified as undergoing off-target CRISPR/Cas9 cleavage using the R02 gRNA.

Molecule: CNC(=O)c1ccnc2c([C@H](C)CNc3cc(-c4cnc(C)nc4)ncn3)cccc12 [Compound 296]
- viability of edited cells (CD34-expressing LT-HSPCs; AAV.307, each concentration used, Experiment 2, FIG. 38C): > 80%
- viability of edited cells (CD34-expressing LT-HSPCs; GFP donor, each concentration evaluated (0.014 μM to 10 μM), FIG. 37A): > 80%
- frequency of INDELs, fold reduced compared to R02 RNP only ([1]; 0.37-10 μM): at least 4.6 fold
- INDEL species due to MMEJ repair (−9 nt deletion) ([1]; Experiment 2, FIG. 38D): only a modest reduction
- fold decrease in INDELs due to NHEJ repair (INDEL of 1 nt) ([1]; Experiment 2, FIG. 38D): ≤ 30 fold
- affinity and selectivity for DNA-PK [2]: high affinity and selectivity
- HDR efficiency ([3]; 3.3 μM, R02 RNP+AAV.307): 80%
- HDR efficiency, fold higher than R02 RNP+AAV only ([3]; 0.37-10 μM): at least 1.6 fold
- level of HDR repair ([3]; 0.37-10 M, R02 RNP+AAV.307, FIGS. 38A-38B): ≥ 70%
- level of HDR repair vs i53 mRNA ([4]; 1.1 μM, 3.3 μM, or 10 μM, FIG. 37B): comparable to cells edited with i53 mRNA
- level of HDR repair (cells expressing GFP) ([4]; 1.1 μM): 53.5%
- level of HDR repair (cells expressing GFP) ([4]; 3.3 μM): 56.5%
- level of HDR repair (cells expressing GFP) ([4]; 10 μM): 55.9%

Molecule: [2H]c1nc(C)nc([2H])c1-c1cc(NC[C@@H](C)c2cccc3c(C(=O)NC)ccnc23)ncn1 [Compound 984]
- viability following editing (CD34-expressing LT-HSPCs; particularly at minimal effective concentrations): good viability
- frequency of INDELs, fold reduced compared to R02 RNP only ([1]; 3.3 μM or 10 μM, FIGS. 39A-39B): approximately 8 fold
- affinity and selectivity for DNA-PK [2]: high affinity and selectivity
- HDR efficiency ([3]; 3.3 μM or 10 μM, R02 RNP+AAV.307, FIGS. 39A-39B): > 80%
- level of HDR repair ([3]; 0.37-10 μM, FIGS. 39A-39B): high

Molecule: CCCCCCNC(=O)Nc1ccc(S(=O)(=O)Nc2ccc(CCNC[C@H](O)COc3ccc(O)cc3)cc2)cc1 [L755,507]
- HDR efficiency (improvement) [5]: no improvement in HDR efficiency

Molecule: C[C@]1(c2nc3c(C(N)=O)cccc3[nH]2)CCCN1 [Veliparib]
- HDR efficiency (improvement) [5]: no improvement in HDR efficiency

Molecule: Cl.O=c1[nH]c([C@@H]2CCCN2)nc2c1oc1ccc(Cl)cc12 [XL413]
- HDR efficiency vs RNP+AAV-only [6]: no improvement in HDR efficiency

B1: R02 gRNA: sgRNA targeting the HBB locus, SEQ ID NO: 17 (spacer SEQ ID NO: 16) (nucleic acid)
guide: mC*mU*mU*rGrCrCrCrCrArCrArGrGrGrCrArGrUrArArGrUrUrUrUrArGrArGrCrUrArGrArArArUrArGrCrArArGrUrUrArArArArUrArArGrGrCrUrArGrUrCrCrGrUrUrArUrCrArArCrUrUrGrArArArArArGrUrGrGrCrArCrCrGrArGrUrCrGrGrUrGrCmU*mU*mU*rU
- number of genomic sites identified as undergoing off-target CRISPR/Cas9 cleavage (genomic DNA): 36

Reference: patent publication US12653860B2, “Compositions and methods for editing beta-globin for treatment of hemaglobinopathies” (Vertex Pharmaceuticals Incorporated, priority 2019, dated 2026)
